According to BindingDB's records for patent US20230364079 (Chengdu Hyperway Pharmaceuticals, 2023):
pIC50: −log10 of the molar value.

Biological target: Tyrosine-protein kinase BTK (Homo sapiens, UniProt Q06187)
Assay: BTK Kinase Activity Inhibition Test in Vitro

Tyrosine-protein kinase BTK, sequence (Q06187 whole entry): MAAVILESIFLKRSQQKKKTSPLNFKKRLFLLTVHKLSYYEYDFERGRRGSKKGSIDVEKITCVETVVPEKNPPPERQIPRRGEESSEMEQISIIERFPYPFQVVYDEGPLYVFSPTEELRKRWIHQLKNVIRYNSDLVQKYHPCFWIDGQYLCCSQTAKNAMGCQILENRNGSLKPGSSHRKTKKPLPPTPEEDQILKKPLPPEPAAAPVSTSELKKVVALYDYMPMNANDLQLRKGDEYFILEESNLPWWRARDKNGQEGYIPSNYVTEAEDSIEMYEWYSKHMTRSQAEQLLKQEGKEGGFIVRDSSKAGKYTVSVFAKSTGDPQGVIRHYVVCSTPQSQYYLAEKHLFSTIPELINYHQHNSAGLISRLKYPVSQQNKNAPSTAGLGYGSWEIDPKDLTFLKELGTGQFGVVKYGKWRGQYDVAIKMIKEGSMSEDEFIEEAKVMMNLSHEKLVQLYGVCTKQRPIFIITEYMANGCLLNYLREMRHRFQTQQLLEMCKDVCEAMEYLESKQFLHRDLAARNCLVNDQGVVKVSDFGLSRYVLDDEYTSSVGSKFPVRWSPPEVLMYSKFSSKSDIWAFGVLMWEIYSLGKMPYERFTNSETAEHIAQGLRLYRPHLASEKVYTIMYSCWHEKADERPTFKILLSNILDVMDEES

| SMILES | pIC50 |
| --- | --- |
| Nc1nccn2c(C3CCC(CO)OC3)nc(-c3ccc(Oc4cccc(Cl)c4F)cc3)c12 (stereo unspecified) [US20230364079, Example 9] | > 8.30 |
| COc1cccc(Oc2ccc(-c3nc(C4CCC(CO)OC4)n4c(Cl)cnc(N)c34)c(F)c2)c1F (stereo unspecified) [US20230364079, Example 11] | > 8.30 |
| Nc1nccn2c(C3CCC(CO)OC3)nc(-c3ccc(Oc4cccc(OC(F)(F)F)c4F)cc3F)c12 (stereo unspecified) [US20230364079, Example 13] | > 8.30 |

Second part, the compound after the results:

| pIC50 | SMILES |
| --- | --- |
| > 8.30 | Nc1nccn2c(C3CCC(CO)OC3)nc(-c3ccc(Oc4cccc(OC(F)(F)F)c4F)cc3)c12 (stereo unspecified) [US20230364079, Example 6] |
| > 8.30 | COc1cccc(Oc2ccc(-c3nc(C4CCC(CO)OC4)n4c(Cl)cnc(N)c34)cc2)c1F (stereo unspecified) [US20230364079, Example 12] |
| > 8.30 | Nc1ncc(Cl)n2c(C3CCC(CO)OC3)nc(-c3ccc(Oc4cccc(OC(F)(F)F)c4F)cc3)c12 (stereo unspecified) [US20230364079, Example 14] |
